From patent US11541101B1, “LEMD3 antagonizes TGF-beta-driven Smad2/3 transcription in a stiffness-dependent fashion in both the nucleus and cytosol” (University of Virginia Patent Foundation, priority 2018, dated 2023)
Peptide text beside a SMILES is read from it. * marks the point of attachment. Cbz = O=C(OCc1ccccc1)*

Tests used:
[1] = pulmonary fibrosis; cited from earlier work
LEMD3 = assay: Recombinant LEMD3 fragment western blots (FLAG and V5 tags); format: cell-based, human; details: pFLAG-LEMD3-V5 transfected cells, inhibitor treatment, FIG. 4E
From the text: Western Blotting—For non-phosphoprotein western blots: cell lysates from tissue culture plastic or from 2 or 25 kPa, […] Petrisoft dishes (Matrigen, Brea, Calif.) were either: harvested directly in 4× protein loading buffer (Licor, Lincoln, Nebr.) supplemented with protease and phosphatase in-hibitors (#A32959, ThermoFisher, Waltham, Mass.) according to the manufacturer's instructions; or, processed with the NE-PER compartment isolation kit (ThermoFisher, Waltham, Mass.) according to the manufacturer's instructions. Lysates were treated with 0.3 μL of benzonuclease (ThermoFisher, Waltham, Mass.) for 15 minutes at room temperature with vigorous shaking. Samples were heated to 95 C for 5 minutes and run on a 4-12% Bis-Tris gel in 1×MES buffer and run for 70 minutes at 150V. The gel was then transferred to a nitro-cellulose membrane using the XCell Blot Module (ThermoFisher, Waltham, Mass.) at 25V for 65 min-utes. Membranes were air-dried for an hour, blocked with 5% non-fat milk in 1×PBS for an hour at room temperature, and then incubated with primary antibodies as described in Table 3 in 1×PBS-T with 1% milk for 16-24 hours at 4 C. Near-IR or HRP conjugated secondaries as described in Table 4 were then incubated with the blot and imaged subsequently on either an Odyssey CLx system for near-IR dyes (Licor, Lincoln, Nebr.) or a ChemiDoc MP system (Bio-Rad, Hercules, Calif.) with SuperSignal West Femto reagents (ThermoFisher, Waltham, Mass.) for HRP secondaries according to the manufacturer's instructions. Band analysis was performed using the associated Licor or Biorad software.
For recombinant LEMD3 western blots: Two samples of HFFs were prepared and electro-porated as above and plated onto each plastic or hydrogel surface for 12 hours (protease inhibitor experiments) or 24 hours (LEMD3 fragment abundance and deletion mutant experiments) before harvesting. qPCR—RNA was isolated from cultured cells using RNEasy Plus Mini kits (Qiagen, Hilden, Germany) according to the manufacturer's instructions. cDNA libraries were constructed using RT2 First Strand kit (Qiagen, Hilden, Germany) according to the manufacturer's instruction. 25 μL qPCR reactions were prepared using SYBR Green Master Mix (ThermoFisher, Waltham, Mass.) with 250 nM primers, listed in Table 3 and 10 ng input cDNA. Reactions were carried out on a StepOnePlus (ThermoFisher, Waltham, Mass.) for 40 cycles. Melt curves were visually inspected after each run to confirm a single, defined peak in the derivated intensity plot. Data from each run was imported into LinRegPCR, which performed baseline correction and measured PCR efficiency by amplicon group as described in (81). The relative number of transcripts was calculated by dividing the Cq threshold by the PCR efficiency for the reaction raised to the power of Cq, the cycle number at which the threshold is reached for a given target. For relative quantification be-tween conditions, LEMD3 transcripts were either: normalized for each condition to the mean of two reference genes, 18S and ACTB, if the samples were all from a single stiffness condition; or, normalized to 18S alone if substrate stiffness was an experimental condition.

Smad-driven luciferase = Smad-driven luciferase assay on substrates of varying stiffness; format: cell-based, human
Procedure: Smad-Driven Luciferase Assays—HFFs were transfected with Cignal Lenti Reporter virus (Qiagen, Hilden, Germany) with a MOI of 40 and subsequently selected using 400 ng/mL puromycin until untransduced HFFs died. Stably transfected HFFs, with or without additional LEMD3-focused genetic treatments as described above, were plated at 10,000 cells/well on a HTS plate (Matrigen, Brea, Calif.) containing glass surfaces and polyacrylamide gels, which ranged in stiffness from 0.2 kPa to 50 kPa, all functionalized with 10 μg/mL plasma-purified human fibronectin according to the manufacturer's instruction. Cells adhered to the surfaces for 4 hours in serum-free DMEM supplemented with 1% BSA and 1% penicillin/streptomycin. Media was then supplemented with the desired amounts of TGFβ and, when applicable, with cytoskeletal agents as described in the results. HFFs were then incubated for 16 hours at 37 C before the luciferase re-action. Wells were supplemented to 2 mM VivoGlo d-luciferin (Promega, Madison, Wis.) using a plate reader controlled auto-injector system and light production was subsequently quantified every 5 minutes for 30 minutes on a Synergy H4 plate reader (BioTek, Winooski, Vt.). The raw luciferase signal was the median intensity measured over this timecourse minus the intensity from luciferase-transfected cells not treated with TGFβ to account for any TGFβ elaborated and activated by the cells in situ. Cells were then fixed with 4% paraformaldehyde, permeabilized with 0.1% Triton X-100, and then stained with 1:10,000 Hoechst 33342 in 1×PBS for 30 minutes at room temperature (ThermoFisher, Waltham, Mass.). The raw luciferase signal was then normalized to the nuclear signal, which was inside a linear standard curve form cells plated on glass and on polyacrylamide within each plate. Data for each condition was then fit to a three-parameter logistic equation using a least-squares minimization fit in Prism (Graph-Pad, La Jolla, Calif.). […] Otherwise, the trends across the maximal luciferase signal (“Top” variable from the model) or the mid-transition point observed between “Bottom” and “Top” signals (“EC50” variable from the model, called “transition point” in text), were statistically compared using an ANOVA with “Test for Trends,” which restricts the hypothesis testing to a particular order of the data-sets (e.g. max luciferase signal as a function of increasing TGFβ dose or transition point as a function of increased LEMD3 expression). Each data point represents at least three biological replicates.

[2] = tested on: LEMD3-phospho-Smad2/3 interactions; assay: LEMD3-phospho-Smad2/3 PLA; format: cell-based, human; details: 100 μg/mL, HFFs on glass, vs untreated fibroblasts, p=0.0333
Procedure: (§1) In vitro PLA: Protein-protein PLA was per-formed with antibody pairs listed in Table 4 as described in (42) with the following modifications: cells were plated on FN-coated glass or hydrogels (Matrigen, Brea, Calif.). All primary antibody in-cubations were performed for 16-24 hours at 4 C and cells were counter-stained with 1:40 phalloidin-488 or phalloidin-546 in 1×PBS for 30 minutes at room temperature and/or further processed for IF imaging using the procedure recommended in Sigma's PLA Resource Center. […] Imaging and analysis were performed as described for high-resolution ex vivo PLA signals except that no tissue autofluorescence signal was measured or needed to be subtracted and, when appro-priate, other IF signal (e.g. FLAG) were measured in parallel. […] Instead the PLA signal was quantified as the PLA volume divided by the nuclear intensity for each image. Each data point represents at least 3 unique surfaces with at least 12 cells measured per surface. For Smad2/3-Smad4 experiments, only two independent hydrogels were analyzed for the “CTF 500 μg/mL” and “Neon 500 μg/mL” groups due to loss of hydrogels during processing. Each bar in FIG. 5D represents the mean with standard error of the mean for all the cells analyzed from that condition.

Smad2/3 = assay: V5-Smad2/3 PLA with recombinant LEMD3 / CTF; format: cell-based, human; details: 50 μg/mL, 1 kPa or 25 kPa substrates, p=0.98 and p=0.99
Procedure: as §1

LEMD3-Smad2/3 complexes = assay: LEMD3-Smad2/3 proximity ligation assay (PLA); format: cell-based, human
Procedure: In vitro PLA: Protein-protein PLA was per-formed with antibody pairs listed in Table 4 as described in (42) with the following modifications: cells were plated on FN-coated glass or hydrogels (Matrigen, Brea, Calif.). All primary antibody in-cubations were performed for 16-24 hours at 4 C and cells were counter-stained with 1:40 phalloidin-488 or phalloidin-546 in 1×PBS for 30 minutes at room temperature and/or further processed for IF imaging using the procedure recommended in Sigma's PLA Resource Center. For all recombinant LEMD3 and C-terminal fragment experiments, HFFs were electroporated as above and allowed to culture for 24 hours on 10 μg/mL fibronectin coated glass or hydrogels before fixation. For LEMD3-phospho-Smad2/3, LEMD3-Smad2/3+TGFβ and for Smad2/3-Smad4 PLA assays: cells were treated 90 minutes before fixation with 50 μg/mL for LEMD3- and CTF-Smad2/3 assays, 100 μg/mL TGFβ for LEMD3-phospho-Smad2/3 experiments and 500 μg/mL TGFβ for Smad2/3-Smad4 experiments. For FLAG post-staining of PLA processed tissues, cells were blocked with unlabelled AffiniPure donkey anti-rabbit antibodies (Jackson ImmunoResearch, West Grove, Pa.) at a 1:10 dilution in 1×PBS-T at room temperature for 1 hour before further IF processing with 1:1000 rabbit anti-FLAG (#F7425, Sigma-Aldrich, Darmstadt, Germany) for 1 hour in PBS-T at room temperature. Following three washes with PBS-T for 5 minutes, each sample was stained with 1:500 goat anti-rabbit 546 in PBS-T for 1 hour at room temperature, washed again and then counter-stained as above. For V5 post-staining of PLA processed samples, cells were incubated with 1:200 647 labelled anti-V5 antibody (R&D Systems, Minneapolis, Minn.) diluted in PBS-T at room tem-perature for 1 hour before washing three times in PBS-T for 5 minutes each and then counter-stained as above. Imaging and analysis were performed as described for high-resolution ex vivo PLA signals except that no tissue autofluorescence signal was measured or needed to be subtracted and, when appro-priate, other IF signal (e.g. FLAG) were measured in parallel. For cells on Matrigen HTS plates (FIGS. 2c & 2d), the confluence of cells prevented identifying individual cell boundaries. Instead the PLA signal was quantified as the PLA volume divided by the nuclear intensity for each image. Each data point represents at least 3 unique surfaces with at least 12 cells measured per surface. For Smad2/3-Smad4 experiments, only two independent hydrogels were analyzed for the “CTF 500 μg/mL” and “Neon 500 μg/mL” groups due to loss of hydrogels during processing. Each bar in FIG. 5D represents the mean with standard error of the mean for all the cells analyzed from that condition.

Smad3 phosphorylation = assay: phospho-Smad3 to total Smad3 ratio by western blot; format: cell-based, human; details: 100 μg/mL for 90 minutes, relative to untreated HFFs, p=0.0506
Smad2/3-Smad4 complexes = assay: Smad2/3-Smad4 PLA; format: cell-based, human; details: 500 μg/mL, HFFs on 1 kPa hydrogels, relative to untreated HFFs, p=0.001
Procedure: as §1

[3] = 10 μM, relative to HFFs treated with TGFβ alone, FIG. 1D

Cc1ccc(=O)n(-c2ccccc2)c1 [Pirfenidone]
disease progression [1]: slowing of disease progression

CC[C@H](CO)Nc1nc(NCc2ccccc2)c2ncn(C(C)C)c2n1 [roscovitine]
46 kDa V5 fragment abundance (LEMD3): significantly increasing | 60 kDa FLAG fragment relative to full length (LEMD3): significantly reducing

CNC(=O)C(CCc1ccccc1)NC(=O)C(CC(=O)NO)CC(C)C (stereo not drawn) [MMPi]
85 kDa V5 fragment abundance (LEMD3): potentiated

TGFβ: Recombinant human TGF-β, R&D Systems 240-B
TGFβ dose-response of luminescence (Smad-driven luciferase; HFFs on stiff substrates, p<0.0001, FIG. 1B): increasing luminescence with increasing TGFβ dose | shift of the sigmoid transition point with increasing pg/mL doses (Smad-driven luciferase; HFFs, p=0.07, FIG. 1B): shift the transition point of the sigmoid towards softer substrates | stiffness at which transition points occurred (Smad-driven luciferase; pg/mL dose-range of TGFβ): 1-4 kPa | LEMD3-phospho-Smad2/3 interactions [2]: significantly higher | CTF-Smad2/3 interaction frequency with TGFβ dosing (Smad2/3): did not significantly vary | LEMD3-Smad2/3 interactions with TGFβ dosing (LEMD3-Smad2/3 complexes; 50 μg/mL, 1 kPa and 25 kPa hydrogels): unperturbed by TGFβ dosing | ratio of phospho-Smad3 to total Smad3 (Smad3 phosphorylation): increased the ratio of phospho-Smad3 to total Smad3 | Smad2/3-Smad4 complexes (Smad2/3-Smad4 complexes): increase

CC(C)C[C@@H](C=O)NC(=O)[C@H](CC(C)C)NC(=O)[C@H](CC(C)C)NC(=O)OCc1ccccc1 [MG-132] (Cbz-Leu-Leu-Leu-aldehyde)
60 kDa FLAG fragment relative to full length (LEMD3): also reduced

C/C1=C\[C@H](C)C[C@H](C)OC(=O)C[C@H](c2ccc(O)cc2)NC(=O)[C@@H](Cc2c(Br)[nH]c3ccccc23)N(C)C(=O)[C@H](C)NC(=O)[C@@H](C)C1 [jasplakinolide, Jasplakinolide]
LEMD3-Smad2/3 interactions, total (LEMD3-Smad2/3 complexes; 100 nM and 200 nM for 2 hours, 1 kPa hydrogels, vs DMSO p<0.0001): dose-dependent decrease | LEMD3-Smad2/3 complex formation, cytoplasm (LEMD3-Smad2/3 complexes; 100 nM and 200 nM, 1 kPa hydrogels, vs DMSO p<0.0001): Significant reductions | LEMD3-Smad2/3 complex formation, nucleus (LEMD3-Smad2/3 complexes; 100 nM p=0.0466, 200 nM p=0.002 vs DMSO, 1 kPa hydrogels): Significant reductions

Cc1ccc2c(c1)C(=O)C1(O)CCN(c3ccccc3)C1=N2 (stereo not drawn) [blebbistatin, Blebbistatin]
maximal luminescence (Smad-driven luciferase; [3]): nor increase the maximal luminescence | transition point (Smad-driven luciferase; [3]): did not significantly shift

O=c1oc(Cl)c(Cl)c2ccccc12 [DCI, 3,4 dichloroisocoumarin]
60 kDa FLAG fragment relative to full length (LEMD3): reduced

C=C1[C@@H](C)[C@H]2[C@H](Cc3ccccc3)NC(=O)[C@]23[C@H](OC(C)=O)/C=C/[C@@](C)(O)C(=O)[C@@H](C)C/C=C/[C@H]3[C@@H]1O [cytochalasin D, Cytochalasin D]
luminescent profile over increasing ECM stiffness (Smad-driven luciferase; 2 μM, FIG. 1D, data did not converge to a sigmoidal model): low, flat luminescent profile | total frequency of LEMD3-Smad2/3 complexes (LEMD3-Smad2/3 complexes; 2 μM for 90 minutes, fibroblasts on glass, p=0.0089): increase | frequency of LEMD3-Smad2/3 complexes, cytosolic compartment (LEMD3-Smad2/3 complexes; 2 μM for 90 minutes, glass, p=0.0871): also increased | frequency of LEMD3-Smad2/3 complexes, nuclear compartment (LEMD3-Smad2/3 complexes; 2 μM for 90 minutes, glass, p=0.5657): also increased

CCOC(=O)[C@H]1O[C@@H]1C(=O)N[C@@H](CC(C)C)C(=O)NCCC(C)C [E64d, E-64D]
85 kDa V5 fragment abundance (LEMD3): potentiated
